{
  "source": "ChEMBL document CHEMBL5325504",
  "about": "“Bioactive Indole Alkaloid from Aspergillus amoenus TJ507 That Ameliorates Hepatic Ischemia/Reperfusion Injury” (J Nat Prod, 2023)",
  "key": {"AML12 [1]": {"tested_on": "AML12", "experiment": "Cytoprotective activity against CoCl2-induced mouse AML12 cells assessed as increase in cell survival rate by CCK8 method", "assay_type": "functional, cell-based"}, "AML12 [2]": {"tested_on": "AML12", "experiment": "Cytotoxicity against mouse AML12 cells assessed as reduction in cell survival rate at by CCK8 assay", "assay_type": "toxicity, cell-based"}, "AML12 [3]": {"tested_on": "AML12", "experiment": "Cytoprotective activity against CoCl2-induced mouse AML12 cells assessed as increased cell survival rate at 1.25 to 10 uM by CCK8 assay", "assay_type": "functional, cell-based", "conditions": "dose 1.25-10 µM"}, "Mus musculus [4]": {"tested_on": "Mus musculus", "experiment": "Hepatoprotective activity against ischemia-reperfusion injury mouse model assessed as reduction in ALT level in serum at 10 mg/kg, ip administered once daily for 3 days", "assay_type": "functional, organism-based", "conditions": "time 3.0 day"}, "Mus musculus [5]": {"tested_on": "Mus musculus", "experiment": "Hepatoprotective activity against ischemia-reperfusion injury mouse model assessed as reduction in AST level in serum at 10 mg/kg, ip administered once daily for 3 days", "assay_type": "functional, organism-based", "conditions": "time 3.0 day"}, "Mus musculus [6]": {"tested_on": "Mus musculus", "experiment": "Hepatoprotective activity against ischemia-reperfusion injury mouse model assessed as reduction in LDH level in serum at 10 mg/kg, ip administered once daily for 3 days", "assay_type": "functional, organism-based", "conditions": "time 3.0 day"}, "Mus musculus [7]": {"organism": "Mus musculus", "experiment": "Hepatoprotective activity against ischemia-reperfusion injury mouse model assessed as reduction in liver ecchymosis by H and E staining based analysis", "assay_type": "functional, organism-based"}, "Mus musculus [8]": {"organism": "Mus musculus", "experiment": "Hepatoprotective activity against ischemia-reperfusion injury mouse model assessed as reduction in leukocyte infiltration by H and E staining based analysis", "assay_type": "functional, organism-based"}, "Mus musculus [9]": {"organism": "Mus musculus", "experiment": "Hepatoprotective activity against ischemia-reperfusion injury mouse model assessed as reduction in necrocytosis by H and E staining based analysis", "assay_type": "functional, organism-based"}, "Mus musculus [10]": {"organism": "Mus musculus", "experiment": "Hepatoprotective activity against ischemia-reperfusion injury mouse model assessed as reduction in TUNEL positive cells by TUNEL staining based analysis", "assay_type": "functional, organism-based"}, "Mus musculus [11]": {"organism": "Mus musculus", "experiment": "Hepatoprotective activity against ischemia-reperfusion injury mouse model assessed as reduction in cleaved caspase-3 by IHC staining based analysis", "assay_type": "functional, organism-based"}, "Mus musculus [12]": {"organism": "Mus musculus", "experiment": "Hepatoprotective activity against ischemia-reperfusion injury mouse model assessed as reduction in MPO expression level by IHC staining based analysis", "assay_type": "functional, organism-based"}, "Mus musculus [13]": {"organism": "Mus musculus", "experiment": "Hepatoprotective activity against ischemia-reperfusion injury mouse model assessed as reduction in translocation of HMGB1 from nucleus to cytoplasm by IHC staining based analysis", "assay_type": "functional, organism-based"}},
  "note": "Activity calls are given as the source filed them. The calls are words filed in the database; no cut-off is given here.",
  "data": [
    {"molecule": "C/C=C1\\NC(=O)[C@H](Cc2c[nH]c3ccccc23)N(C)C1=O", "values": [
      {"measurement": "Activity", "setting": "AML12 [1]", "value": "inactive"}
    ]},
    {"molecule": "C=CC(C)(C)C(=O)Nc1c(C(=O)C[C@@H]2NC(=O)[C@@H]3CCCN3C2=O)ccc(O)c1CC=C(C)C", "values": [
      {"measurement": "Activity", "setting": "AML12 [1]", "value": "inactive"}
    ]},
    {"molecule": "C=CC(C)(C)[C@@]1(C[C@@H]2NC(=O)[C@]3(OC)CCCN3C2=O)C(=O)Nc2c1ccc1c2C=CC(C)(C)O1", "values": [
      {"measurement": "Activity", "setting": "AML12 [1]", "value": "inactive"}
    ]},
    {"molecule": "C=CC(C)(C)[C@]1(C[C@@H]2NC(=O)[C@@H]3CCCN3C2=O)C(=O)Nc2c1ccc(O)c2CC=C(C)C", "values": [
      {"measurement": "Activity", "setting": "AML12 [1]", "value": "inactive"}
    ]},
    {"molecule": "CC1(C)C=Cc2c(ccc3c2N(O)C(=O)[C@@]32C[C@@]34NC(=O)[C@]5(CCCN5C3=O)C[C@H]4C2(C)C)O1", "values": [
      {"measurement": "Activity", "setting": "AML12 [1]", "value": "inactive"}
    ]},
    {"molecule": "CC1(C)C=Cc2c(ccc3c2NC(=O)[C@@]32C[C@@]34NC(=O)[C@]5(CCCN5C3=O)C[C@H]4C2(C)C)O1", "values": [
      {"measurement": "Activity", "setting": "AML12 [1]", "value": "inactive"}
    ]},
    {"molecule": "C=CC(C)(C)[C@]1(C[C@@H]2NC(=O)[C@]3(OC)CCCN3C2=O)C(=O)Nc2c1ccc1c2C=CC(C)(C)O1", "note": "[NOTOAMIDE Q]", "values": [
      {"measurement": "Activity", "setting": "AML12 [1]", "value": "Active"},
      {"measurement": "Activity", "setting": "AML12 [2]", "value": "Non-Toxic"},
      {"measurement": "Activity", "setting": "AML12 [3]", "value": "Active"},
      {"measurement": "Activity", "setting": "Mus musculus [4]", "value": "Active"},
      {"measurement": "Activity", "setting": "Mus musculus [5]", "value": "Active"},
      {"measurement": "Activity", "setting": "Mus musculus [6]", "value": "Active"},
      {"measurement": "Activity", "setting": "Mus musculus [7]", "value": "Active"},
      {"measurement": "Activity", "setting": "Mus musculus [8]", "value": "Active"},
      {"measurement": "Activity", "setting": "Mus musculus [9]", "value": "Active"},
      {"measurement": "Activity", "setting": "Mus musculus [10]", "value": "Active"},
      {"measurement": "Activity", "setting": "Mus musculus [11]", "value": "Active"},
      {"measurement": "Activity", "setting": "Mus musculus [12]", "value": "Active"},
      {"measurement": "Activity", "setting": "Mus musculus [13]", "value": "Active"}
    ]}
  ]
}
